Columns and labels:
Format in all cases: cell-based
[1] = tested on: human adipose tissue-derived stem cells; assay: Differentiation into adipocytes, oil red O staining (Example 7); conditions: 30 KGy gamma radiation, post-treated with 1% vitamin C, passage 4
Protocol: (§1) For the positive control group and vitamin C post-treatment test group of Example 6, the purity and characteristics of the stem cells at passage 4 were examined. The purity of the stem cells was examined by analyzing the expression of CD markers using FACS (FIG. 12 and Table 10), and the characteristics of the stem cells were examined by analyzing differentiation into adipocytes, osteocytes and chondrocytes (FIGS. 13 to 15). Differentiation into adipocytes was analyzed by oil red 0 staining according to the Sigma-Aldrich protocol, and differentiation into osteocytes was analyzed by alizarin red S staining according to the Lifeline Cell Tech's protocol, and differentiation into chondrocytes was analyzed by TSP2 ELISA.

[2] = tested on: human adipose tissue-derived stem cells; assay: Expression of stem cell CD markers by FACS (Example 7); design: CD73 expression (FACS) / CD31 expression (FACS) / CD34 expression (FACS) / CD45 expression (FACS): unit not given here; conditions: for CD31 expression (FACS) / CD34 expression (FACS) / CD45 expression (FACS) / CD73 expression (FACS) / CD90 expression (FACS): 30 kGy FBS; for CD90 expression (FACS): in % (unit assumed)
Protocol: as §1

[3] = tested on: human adipose tissue-derived stem cells; assay: Adhesion and proliferation rate of stem cells cultured in 30 kGy gamma-irradiated FBS over passages (Example 6); conditions: 30 kGy FBS
Protocol: Fetal bovine serum (FBS) was irradiated with 30 kGy of gamma radiation, thereby preparing gamma-irradiated FBS. The gamma-irradiated FBS was added to AMSC+ culture medium (R-Bio Co., Ltd.) at a concentration of 5%, and 1% vitamin C was added to the culture medium, thereby preparing a medium (a vitamin C post-treatment group). Then, the human adipose tissue-derived stem cells at passage 1, isolated in Example 1, were thawed and inoculated into T25 flasks at a concentration of 0.7×10^3 cells/T25 flask, and the inoculated cells were cultured with AMSC+ culture medium (R-Bio Co., Ltd.) containing the prepared gamma-irradiated FBS at a concentration of 5% in a CO2 incubator at 37° C. for 2 days. After 2 days of culture, the medium was removed and replaced with AMSC+ culture medium containing 5% normal FBS (a positive control group), or medium obtained by adding vitamin C to AMSC+ culture medium containing 5% gamma-irradiated FBS (a vitamin C post-treatment test group). Vitamin C was added to the culture medium at a concentration of 1%. […] The stem cell adhesion shown in FIGS. 11A-11C was examined with a Leica microscope, and the cell number, cell size and viability shown in Tables 6 to 9 were examined with Luna™ Automated cell counter L10001 (Logos Biosystems).

[4] = tested on: human adipose tissue-derived stem cells; assay: Differentiation into osteocytes, alizarin red S staining (Example 7); conditions: 30 KGy gamma radiation, post-treated with 1% vitamin C, passage 4
Protocol: as §1

[5] = tested on: human adipose tissue-derived stem cells; assay: Culture of stem cells in AMSC+ medium with 25 kGy gamma-irradiated FBS and vitamin C post-treatment (Example 2): cell number, doubling time; conditions: for Cell No. / Doubling time: Ad-MSC (P4)
Protocol: Fetal bovine serum (FBS) was irradiated with 25 kGy of gamma radiation (Soyagreentec Co., Ltd.), thereby preparing gamma-irradiated FBS. Then, the human adipose tissue-derived stem cells at passage 3, isolated in Example 1, were thawed and inoculated into T75 flasks at a concentration of 0.5×10^6 cells/T75 flask, and the inoculated cells were cultured with AMSC+ culture medium (R-Bio Co., Ltd.) containing the prepared gamma-irradiated FBS at a concentration of 5% in a CO2 incubator at 37° C. for 2 days. After 2 days of culture, the medium was removed and replaced with either AMSC+ culture medium containing 5% gamma-irradiated FBS (a negative control group) or medium obtained by adding vitamin C (ascorbic acid; L-Ascorbic Acid 2-phosphate) to AMSC+ culture medium containing 5% gamma-irradiated FBS (a vitamin C post-treatment test group). Vitamin C was added to the culture medium at concentrations of 0.025, 0.05, 0.1 and 1%. The AMSC+ culture medium (R-Bio Co., Ltd.) is a 1:1 mixture of KSFM-P medium (containing Defined Keratinocyte-SFM, 0.2 mM L-ascorbic acid 2-phosphate, 5 μg/ml insulin, 2 mM N-acetyl-L-cysteine, 0.09 mM calcium chloride, 74 ng/ml hydrocortisone and 5% FBS) and DMEM medium. After 4 days of culture, the cell proliferation rate and doubling time of the cells were examined. The viability of the cells was examined with a microscope and a hemocytometer, and the doubling time was calculated using the following equation: Doubling Time=duration×log(2)/log(final concentration)−log(initial concentration). [Equation 1] A positive control group was cultured using 5% normal FBS (which was not irradiated with gamma radiation) and AMSC+ culture medium in the same manner as the negative control group and the test group.

[6] = Stem cells #1 P4, 1% vitamin C post-treatment
[7] = Stem cells #2 P4, 1% vitamin C post-treatment
[8] = Stem cells #3 P4, 1% vitamin C post-treatment
[9] = Stem cells #1 P1, 1% vitamin C post-treatment
[10] = Stem cells #1 P2, 1% vitamin C post-treatment
[11] = Stem cells #1 P3, 1% vitamin C post-treatment
[12] = Stem cells #2 P1, 1% vitamin C post-treatment
[13] = Stem cells #2 P2, 1% vitamin C post-treatment
[14] = Stem cells #2 P3, 1% vitamin C post-treatment
[15] = Stem cells #3 P1, 1% vitamin C post-treatment
[16] = Stem cells #3 P2, 1% vitamin C post-treatment
[17] = Stem cells #3 P3, 1% vitamin C post-treatment
[18] = 25 KGy FBS + 0.025% AA2P added to medium, 4 days of culture
[19] = 25 KGy FBS + 0.05% AA2P added to medium, 4 days of culture
[20] = 25 KGy FBS + 0.1% AA2P added to medium, 4 days of culture
[21] = 25 KGy FBS + 1% AA2P added to medium, 4 days of culture
[22] = vitamin C post-treatment, 25 kGy FBS, 4 days of culture

O=C1O[C@H]([C@@H](O)CO)C(O)=C1OP(=O)(O)O [AA2P, L-Ascorbic Acid 2-phosphate]
differentiation into adipocytes versus positive control group [1]: did not differ from those of the positive control group
expression of CD markers versus positive control group ([2]; 30 KGy gamma radiation, post-treated with 1% vitamin C, passage 4): did not differ from that in the positive control group
CD31 expression (FACS) [2, 6]: 0.52
CD34 expression (FACS) [2, 6]: 0.31
CD45 expression (FACS) [2, 6]: 0.49
CD73 expression (FACS) [2, 6]: 94.30
CD90 expression (FACS) [2, 6]: 99.98
CD31 expression (FACS) [2, 7]: 0.16
CD34 expression (FACS) [2, 7]: 0.14
CD45 expression (FACS) [2, 7]: 0.11
CD73 expression (FACS) [2, 7]: 93.42
CD90 expression (FACS) [2, 7]: 99.99
CD31 expression (FACS) [2, 8]: 0.47
CD34 expression (FACS) [2, 8]: 0.70
CD45 expression (FACS) [2, 8]: 0.78
CD73 expression (FACS) [2, 8]: 91.45
CD90 expression (FACS) [2, 8]: 99.99
adhesion, cell number, cell size and viability versus positive control group ([3]; 1% vitamin C post-treatment, stem cells at passages 2 to 4): did not differ from those of the positive control group
Cell number [3, 9]: 2.4 × 10^7 cells
Cell size [3, 9]: 19.1 μm
Viability [3, 9]: 84.4%
Cell number [3, 10]: 1.6 × 10^7 cells
Cell size [3, 10]: 19.5 μm
Viability [3, 10]: 83%
Cell number [3, 11]: 2.0 × 10^7 cells
Cell size [3, 11]: 19.2 μm
Viability [3, 11]: 88.7%
Cell number [3, 6]: 3.3 × 10^8 cells
Cell size [3, 6]: 20 μm
Viability [3, 6]: 87.5%
Cell number [3, 12]: 1.8 × 10^7 cells
Cell size [3, 12]: 20 μm
Viability [3, 12]: 89.6%
Cell number [3, 13]: 1.8 × 10^7 cells
Cell size [3, 13]: 19.3 μm
Viability [3, 13]: 95.5%
Cell number [3, 14]: 1.2 × 10^7 cells
Cell size [3, 14]: 19.7 μm
Viability [3, 14]: 88.9%
Cell number [3, 7]: 1.5 × 10^8 cells
Cell size [3, 7]: 18.8 μm
Viability [3, 7]: 95.6%
Cell number [3, 15]: 2.3 × 10^7 cells
Cell size [3, 15]: 19.6 μm
Viability [3, 15]: 87.1%
Cell number [3, 16]: 1.4 × 10^7 cells
Cell size [3, 16]: 18 μm
Viability [3, 16]: 82%
Cell number [3, 17]: 1.4 × 10^7 cells
Cell size [3, 17]: 19.3 μm
Viability [3, 17]: 88.2%
Cell number [3, 8]: 2.1 × 10^8 cells
Cell size [3, 8]: 17.8 μm
Viability [3, 8]: 88.0%
differentiation into osteocytes versus positive control group [4]: did not differ from those of the positive control group
Cell No. [5, 18]: 10.035 ×10^6 cells
Doubling time [5, 18]: 31.33 h
Cell No. [5, 19]: 9.5 ×10^6 cells
Doubling time [5, 19]: 32.16 h
Cell No. [5, 20]: 10.6 ×10^6 cells
Doubling time [5, 20]: 30.54 h
Cell No. [5, 21]: 12 ×10^6 cells
Doubling time [5, 21]: 28.9 h
cell number versus negative control group [5, 22]: increased compared to the negative control group
doubling time versus negative control group [5, 22]: decreased compared to the negative control group
microscope observation of stem cells ([5]; vitamin C post-treatment, 25 kGy FBS, days 0, 1 and 4 (FIG. 1)): levels similar to those of the positive control group
